The test system of assay [1] is HT29 cells. Description: CyQuant cell proliferation activity test in HT29 cells. The assay is classed as cell-based. Conditions: Homo sapiens, HT-29, 72 h, 2000 cells per well, 3 days incubation, IC50 by XLFIT, read-out: HT29_IC50_nM. The essentials:
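Cells seeded at 2000/well in RPMI-1640 with 10% FBS, overnight, then exposed 3 days at 37 °C to compound from 3000 nM top, 3-fold, 9 points, 0.2% DMSO. CyQuant read after 1 h; IC50 from curve fit.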

For assay [2], the system named is OVCAR3 cells. The assay can be described thus: Cell proliferation activity test in OVCAR3 cells (CyQUANT Direct). The assay is classed as cell-based. The following applies: Homo sapiens, OVCAR-3, 72 h, 3 days incubation, CyQUANT fluorescence detection, read-out: OVCAR-3_IC50_nM. The essentials:
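Log-phase cells in RPMI-1640 with 10% FBS were seeded overnight, then exposed to compound at final 0–10 μM (0.2% DMSO) for 3 days at 37 °C, 5% CO2. Proliferation was read by CyQUANT Direct fluorescence after 60 min at 37 °C.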

Assay [3] addresses T1, Human KIF18A (amino acid sequence 1-417) (Homo sapiens, UniProt Q8NI77).
T1 construct: purchased Viva Biotech (Shanghai) Ltd
T1 sequence (Q8NI77 1-417): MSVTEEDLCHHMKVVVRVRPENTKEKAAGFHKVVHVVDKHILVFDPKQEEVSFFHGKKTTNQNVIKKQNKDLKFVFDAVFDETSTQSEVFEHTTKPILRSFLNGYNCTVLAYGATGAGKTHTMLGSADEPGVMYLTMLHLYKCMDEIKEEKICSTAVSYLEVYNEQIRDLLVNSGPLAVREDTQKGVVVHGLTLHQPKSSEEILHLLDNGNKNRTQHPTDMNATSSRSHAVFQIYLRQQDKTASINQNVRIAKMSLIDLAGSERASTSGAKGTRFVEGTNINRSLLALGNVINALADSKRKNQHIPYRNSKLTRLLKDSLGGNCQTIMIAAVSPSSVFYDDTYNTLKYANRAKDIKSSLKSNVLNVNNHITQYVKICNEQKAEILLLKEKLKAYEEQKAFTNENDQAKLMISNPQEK
Description: Enzymatic activity test (ADP-Glo, microtubule-stimulated KIF18A ATPase). Conditions: 60 μg/mL microtubules, 25 μM ATP, 2.5 nM KIF18A protein, 120 min at ambient temperature, read-out: KIF18A_nM. The assay is classed as biochemical. The essentials:
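Microtubule-stimulated ATPase of KIF18A(1-417) run with 60 μg/mL microtubules, 25 μM ATP and 2.5 nM enzyme, compounds at 0-10 μM final, 120 min at ambient temperature. ADP formed was read by ADP-Glo chemiluminescence after two 30-min reagent incubations.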
(ADP-Glo first removes unused ATP, then detects ADP through luciferase.)

The structures appear in SMILES notation. pIC50: −log10 of the molar value.

Take `O=C(Nc1cc2cc(O)nnc2c(N2CCC(F)(F)CC2)n1)c1ccc(NS(=O)(=O)CCO)cc1N1CCC2(CC1)CC2` [Example 61, 2-{6-Azaspiro[2.5]octan-6-yl}-N-[8-(4,4-difluoropiperidin-1-yl)-3-hydroxypyrido[3,4-c]pyridazin-6-yl]-4-(2-hydroxyethanesulfonamido)benzamide]: the pIC50 in assay [1] was 6.95; in assay [2], 7.13; in assay [3], 7.82.
The like results for `Nc1cc2cc(NC(=O)c3ccc(NS(=O)(=O)CCO)cc3N3CCC4(CC3)CC4)nc(N3CCC(F)(F)CC3)c2nn1` [Example 62, N-[3-amino-8-(4,4-difluoropiperidin-1-yl)pyrido[3,4-c]pyridazin-6-yl]-2-{6-azaspiro[2.5]octan-6-yl}-4-(2-hydroxyethanesulfonamido)benzamide] were, in that order, 7.92, 7.89 and 7.55.
Turning to `O=C(Nc1cc(N2CCC(F)(F)CC2)c2ncccc2c1)c1ccc(NS(=O)(=O)CCO)cc1N1CCC2(CC1)CC2` [Example 63], the results for the pIC50 in assay [1], in assay [2] and in assay [3] were 7.82, 7.96 and 7.46, respectively.
The like results for `Cc1ccc2cc(NC(=O)c3ccc(NS(=O)(=O)CCO)cc3N3CCC4(CC3)CC4)cc(N3CCC(F)(F)CC3)c2n1` [Example 64] were, in that order, 7.09, 7.12 and 6.94.
On to `COc1ccc2cc(NC(=O)c3ccc(NS(=O)(=O)CCO)cc3N3CCC4(CC3)CC4)cc(N3CCC(F)(F)CC3)c2n1` [Example 65, N-(8-(4,4-difluoropiperidin-1-yl)-2-methoxyquinolin-6-yl)-4-(2-hydroxyethylsulfonamide)-2-(6-azaspiro[2.5]octan-6-yl)benzamide], for which the pIC50 in assay [1] was 6.43; in assay [2], 6.38; in assay [3], 6.63.
The like results for `O=C(Nc1cc(N2CCC(F)(F)CC2)c2nc(O)ccc2c1)c1ccc(NS(=O)(=O)CCO)cc1N1CCC2(CC1)CC2` [Example 66] were, in that order, 7.10, 7.46 and 7.64.
Regarding `Nc1ccc2cc(NC(=O)c3ccc(NS(=O)(=O)CCO)cc3N3CCC4(CC3)CC4)cc(N3CCC(F)(F)CC3)c2n1` [Example 67], the pIC50 in assay [1] was 7.89; in assay [2] it was 8.15; in assay [3], 7.28.
The like results for `N#Cc1ccc2cc(NC(=O)c3ccc(NS(=O)(=O)CCO)cc3N3CCC4(CC3)CC4)cc(N3CCC(F)(F)CC3)c2n1` [Example 68, N-(2-cyano-8-(4,4-difluoropiperidin-1-yl)quinolin-6-yl)-4-((2-hydroxyethyl)sulfon amido)-2-(6-azaspiro[2.5]oct-6-yl)benzamide] were, in that order, 7.00, 6.92 and 6.51.
Turning to `O=C(Nc1cc(N2CCC(F)(F)CC2)c2nc(C(F)(F)F)ccc2c1)c1ccc(NS(=O)(=O)CCO)cc1N1CCC2(CC1)CC2` [Example 69, (2-(6-Azaspiro[2.5]octan-6-yl)-4-{[(2-hydroxyethyl)sulfonyl]amino}phenyl)-N-[8-(4,4-difluoropiperidinyl)-2-(trifluoromethyl)(6-quinolinyl)]formamide], the pIC50 in assay [1] is 5.96; in assay [2], 5.98; in assay [3], 5.99.
The like results for `[2H]c1c(NC(=O)c2ccc(NS(=O)(=O)CCO)cc2N2CCC3(CC2)CC3)cc2cccnc2c1N1CCC(F)(F)CC1` [Example 70, N-(8-(4,4-difluoropiperidin-1-yl)quinolin-6-yl-7-d)-4-((2-hydroxyethyl)sulphonamino)-2-(6-azaspiro[2.5]octan-6-yl)benzamide] were, in that order, 7.80, 8.05 and 7.37.
The like results for `O=C(Nc1cc2cccnc2c(N2CCC(F)(F)CC2)c1F)c1ccc(NS(=O)(=O)CCO)cc1N1CCC2(CC1)CC2` [Example 71, N-(8-(4,4-difluoropiperidin-1-yl)-7-fluoroquinolin-6-yl)-4-((2-hydroxyethyl)sulfonamido)-2-(6-azaspiro[2.5]octan-6-yl]benzamide] were, in that order, 7.77, 7.74 and 6.89.
The like results for `O=C(Nc1cc2cccnc2c(N2CCC(F)(F)CC2)c1C(F)(F)F)c1ccc(NS(=O)(=O)CCO)cc1N1CCC2(CC1)CC2` [Example 72, N-(8-(4,4-difluoropiperidin-1-yl)-7-(trifluoromethyl)quinolin-6-yl)-4-((2-hydroxyethyl)sulfonamido)-2-(6-azaspiro[2.5]octan-6-yl)] were, in that order, below 5.52, below 5.52 and below 5.52.
As for `O=C(Nc1cc2cccnc2c(N2CCC(F)(F)CC2)c1Cl)c1ccc(NS(=O)(=O)CCO)cc1N1CCC2(CC1)CC2` [Example 73, N-(7-chloro-8-(4,4-difluoropiperidin-1-yl)quinolin-6-yl)-4-((2-hydroxyethyl)sulfonamido)-2-(6-azaspiro[2.5]oct-6-yl)benzamide], the pIC50 in assay [1] is 5.85; in assay [2], 5.99; in assay [3] it was below 5.52.
In the same order, the values of `N#Cc1c(NC(=O)c2ccc(NS(=O)(=O)CCO)cc2N2CCC3(CC2)CC3)cc2cccnc2c1N1CCC(F)(F)CC1` [Example 74, N-(7-cyano-8-(4,4-difluoropiperidin-1-yl)quinolin-6-yl)-4-((2-hydroxyethyl)sulfon amido)-2-(6-azaspiro[2.5]oct-6-yl)benzamide] are 5.75, 5.82 and below 5.52.
Consider `Cc1ccc2cc(NC(=O)c3ccc(NS(=O)(=O)CCO)cc3N3CCC4(CC3)CC4)c(F)c(N3CCC(F)(F)CC3)c2n1` [Example 75, N-(8-(4,4-difluoropiperidin-1-yl)-7-fluoro-2-methylquinolin-6-yl)-4-((2-hydroxyethyl)sulfonamido)-2-(6-azaspiro[2.5]octan-6-yl)benzamide], for which the pIC50 in assay [1] is 7.36; in assay [2], 7.08; in assay [3] it was 6.41.
In the same order, the values of `O=C(Nc1cc2ccc(O)nc2c(N2CCC(F)(F)CC2)c1F)c1ccc(NS(=O)(=O)CCO)cc1N1CCC2(CC1)CC2` [Example 76, N-(8-(4,4-difluoropiperidin-1-yl)-7-fluoro-2-hydroxyquinolin-6-yl)-4-((2-hydroxyethyl)sulfonamido)-2-(6-azaspiro[2.5]oct-6-yl)benzamide] are 7.51, 7.47 and 7.34.
For `Nc1ccc2cc(NC(=O)c3ccc(NS(=O)(=O)CCO)cc3N3CCC4(CC3)CC4)c(F)c(N3CCC(F)(F)CC3)c2n1` [Example 78, N-(2-amino-8-(4,4-difluoropiperidin-1-yl)-7-fluoroquinolin-6-yl)-4-((2-hydroxyethyl)sulfonamido)-2-(6-azaspiro[2.5]octan-6-yl)benzamide], the pIC50 in assay [1] is 7.96; in assay [2], 7.92; in assay [3], 6.71.
In the same order, the values of `CNc1ccc2cc(NC(=O)c3ccc(NS(=O)(=O)CCO)cc3N3CCC4(CC3)CC4)c(F)c(N3CCC(F)(F)CC3)c2n1` [Example 79, N-(8-(4,4-difluoropiperidin-1-yl)-7-fluoro-2-(methylamino)quinolin-6-yl)-4-((2-hydroxyethyl)sulfonamido)-2-(6-azaspiro[2.5]oct-6-yl)benzamide] are 7.26, 7.33 and 6.03.
The like results for `O=C(Nc1cc2cccnc2c(N2CCC(F)(F)CC2)c1F)c1cnc(NS(=O)(=O)CCO)cc1N1CCC2(CC1)CC2` [Example 80, N-(8-(4,4-difluoropiperidin-1-yl)-7-fluoroquinolin-6-yl)-6-((2-hydroxyethyl)sulfonamido)-4-(6-azaspiro[2.5]oct-6-yl)nicotinamide] were, in that order, 7.70, 7.74 and 8.05.
In the same order, the values of `O=C(Nc1cc(N2CCC(F)(F)CC2)c2cnccc2c1)c1ccc(NS(=O)(=O)CCO)cc1N1CCC2(CC1)CC2` [Example 81, N-(8-(4,4-difluoropiperidin-1-yl)isoquinolin-6-yl)-4-(2-hydroxyethylsulfonamido)-2-(6-azaspiro[2.5]octan-6-yl)benzamide] are 8.10, 7.74 and 7.46.
On to `O=C(Nc1cc(N2CCC(F)(F)CC2)c2nnccc2c1)c1ccc(NS(=O)(=O)CCO)cc1N1CCC2(CC1)CC2` [Example 82, 2-{6-azaspiro[2.5]octan-6-yl}-N-[8-(4,4-difluoropiperidin-1-yl)misonin-6-yl]-4-(2-hydroxyethanesulfonamido)benzamide], for which the pIC50 was 7.85 in assay [1], 7.89 in assay [2] and 7.48 in assay [3].
